4 molecules from PubChem BioAssay AID743485 (Broad Institute, 2014) can be followed below.

This test deals with Mycobacterium tuberculosis replicating, CFU count, imaging. The experiment in a line: M. tuberculosis CFU reduction, CFU imaging, dry powder, dose response (AID 743485).
In the case of `Cn1c(NC(=O)c2ccccc2)nc2c3ncccc3ccc21`, the AC90 was below 8 µM.

Consider `Cn1c(NC(=O)c2ccccc2)nc2c3cnccc3ccc21`, for which the AC90 is below 8 µM.

For `Cn1c(NC(=O)c2ccccc2)nc2c3nccnc3ccc21`, the AC90 is below 16 µM.

With `Cn1c(NC(=O)c2ccccc2)nc2c3ccncc3ccc21`, the AC90 is below 8 µM.
